Tested on: Mus musculus
Assay: Immunostimulant activity after subcutaneous administration using mouse protection assay
Format: functional
Conditions: sc, read-out: MED

| SMILES | minimal effective dose [mg/kg] |
| --- | --- |
| Nc1ccc2nc(-c3ccccc3)cc(NC3CCCCC3)c2c1 | > 100 |
| Nc1ccc2nc(-c3ccccc3)cc(Nc3ccc(F)c(F)c3)c2c1 | 6.25 |
| CC(=O)Nc1ccc2nc(C)cc(Nc3ccc(OCC4CCCCC4)cc3)c2c1 | 12.5 |
| Cc1cc(Nc2ccc(OCC3CCCCC3)cc2)c2cc(N)ccc2n1 | 6.25 |
| Nc1ccc2nccc(Nc3ccc(OCC4CCCCC4)cc3)c2c1 | 12.5 |
| Nc1ccc2nc(-c3ccccc3)cc(Nc3ccc(OCC4CCCCC4)cc3)c2c1 | 5.6 |
| Cc1cc(Nc2ccc(OCC3CCCCC3)cc2)c2cc(NC(N)=O)ccc2n1 | 50 |
| CCOc1ccc(Nc2ccnc3ccc(N)cc23)cc1 | 6.25 |
| Cc1cc(Nc2ccc(F)c(F)c2)c2cc(N)ccc2n1 | 12.5 |
| CC(=O)Nc1ccc2nccc(Nc3ccc(OCC4CCCCC4)cc3)c2c1 | 6.25 |
| CS(=O)(=O)Nc1ccc2nc(-c3ccccc3)cc(Nc3ccc(OCC4CCCCC4)cc3)c2c1 | 12.5 |
| O=[N+]([O-])c1ccc2nc(-c3ccccc3)cc(Nc3ccc(Cl)cc3)c2c1 | > 50 |
| Nc1ccc2nc(-c3ccccc3)cc(Nc3ccc(Cl)cc3)c2c1 | 5.6 |
| CCCCOc1ccc(Nc2ccnc3ccc(N)cc23)cc1 | 25 |
| O=[N+]([O-])c1ccc2nc(-c3ccccc3)cc(Nc3ccc(OCC4CCCCC4)cc3)c2c1 | > 50 |
| NC(=O)Nc1ccc2nc(-c3ccccc3)cc(Nc3ccc(OCC4CCCCC4)cc3)c2c1 | 6.25 |

— ChEMBL document CHEMBL1152091, “The synthesis and identification of 4,6-diaminoquinoline derivatives as potent immunostimulants” (1992)
